# Values of other authors in patent publication US10188628B1, “Release composition for derivatives of Cannabaceae” (priority 2016, dated 2019).
# Assays:
# [1] = after oral administration
# [2] = not given; remark: listed apart in the source
smiles,measurement,setting,value
"CCCCCc1cc(O)c2c(c1)OC(C)(C)[C@@H]1CCC(C)=C[C@@H]21 [Dronabinol, Δ^9-tetrahydrocannabinol]",appetite stimulant effect may continue,[1],≥ 24 h
same,duration of action for psychoactive effects,[1],4 to 6 h
same,onset of action,[1],0.5 to 1 h
same,peak effect,[1],2 to 4 h
same,absorbed,after a single oral dose,90-95%
same,maximal plasma levels,oral dosing of 20 mg in a sesame oil formulation,around 10 ng/ml
same,administered dose reaching systemic circulation,"oral, first pass hepatic metabolism and high lipid solubility",10-20%
same,stability to storage and stress conditions,"[2]; heat, light",thermolabile and photolabile
same,biopharmaceutical classification system (BCS) class,[2]; low aqueous solubility and high permeability,Class II
